Experimental data taken from PMC10303159, “Conjugation of Triterpenic Acids of Ursane and Oleanane Types with Mitochondria-Targeting Cation F16 Synergistically Enhanced Their Cytotoxicity against Tumor Cells” (Membranes, 2023).

Experiments:
[1] = test system: H1299 cells (human non-small cell lung cancer); test: MTT cytotoxicity assay, H1299; assay type: cell-based; conditions: Homo sapiens, NCI-H1299, 48 h of treatment, mean ± SEM
Source text: (§1) All cell lines used in this study (human non-small cell lung cancer—H1299 (Accession Number—CRL-5803), human lung carcinoma—A549 (Accession Number—CCL-185), human breast adenocarcinoma—MCF-7 (Accession Number—HTB-22), human breast ductal carcinoma—BT474 (Accession Number—HTB-20)) were purchased from American Type Culture Collection (ATCC, Manassas, VA, USA). Human primary dermal fibroblasts (HPDF) derived from a patch of skin of healthy donors (n = 3) were obtained from the biobank of the Institute for Regenerative Medicine, Lomonosov Moscow State University, collection ID: MSU_FB (https://human.depo.msu.ru (accessed on 14 September 2021)). Cells were grown in DMEM media supplemented with 10% fetal bovine serum, 100 μg/mL gentamycin, and 2 mM of glutamine at 37 °C in a 5% CO2 atmosphere.
(§2) To carry out the MTT assay, 3500 cells per well were seeded in 96-well plates. A day after the seeding, triterpenoids or their derivatives dissolved in DMSO were added. DMSO was used as a control. At 48 h after cell seeding, 10 μL of 5 mg/mL Thiazolyl Blue (Paneko, Russia) solution was added to each well and cells were kept for 3 h at 37 °C in a CO2 incubator. After removing the thiazol-containing medium, 150 μL of isopropyl alcohol (supplemented with 40 mM HCl and 0.1% NP-40) was added to dissolve the MTT-formazan salt. The absorbance at 570 and 630 nm (reference) was measured using a BioRad iMark microplate reader (BioRad, Hercules, CA, USA). Four biological replicates were used for the experiment. The results were processed with Excel software (version number: 14.0.6023.1000 (32-bit)). IC50 values were calculated by using AAT Bioquest online calculator (https://www.aatbio.com/tools/ic50-calculator, accessed on 15 May 2023) and are represented as the mean ± SEM.

rat liver mitochondria [2] = test: Respiration of isolated mitochondria fueled by glutamate and malate; assay type: biochemical
Procedure: (§3) Mitochondria were obtained from the liver of male Wistar rats (210–250 g) using the differential centrifugation method. The detailed procedure and composition of the isolation media were described earlier. The suspension of isolated mitochondria contained about 60–70 mg of mitochondrial protein per ml (determined by the Bradford method).
(§4) The rate of O2 consumption by mitochondrial samples was estimated using Oxygraph Plus (Hansatech Instruments Ltd., Pentney, King’s Lynn, UK). The reaction medium included 200 mM sucrose, 20 mM KCl, 0.5 mM EGTA, 5 mM KH2PO4, and 10 mM Hepes/KOH, pH 7.4. The following combinations of substrates and reagents were used: 2.5 mM potassium glutamate + 2.5 mM potassium malate and 5 mM potassium succinate + 1 µM rotenone. Under these conditions, it is possible to assess the oxygen-consuming capacity of mitochondria through complexes I and II of the electron transport chain. To determine the rates of the phosphorylating respiration (State 3) and uncoupled respiration (State 3UDNP) of the mitochondria, 200 µM ADP and 50 µM 2,4-dinitrophenol (DNP) were added sequentially. The concentration of mitochondrial protein was 1 mg/mL.

BT474 cells = test: Oxidative stress assay (Muse Oxidative Stress Kit), BT474; assay type: cell-based, human; conditions: BT474, 2 μM
Procedure: Oxidative stress was assessed after cell culture and incubation (as described above). For this, cells were harvested by trypsinization, washed with ice-cold PBS buffer (pH 7.4), and centrifuged (1000 rpm, 5 min). The resulting cells were resuspended in PBS. Cell population analysis for oxidative stress was performed on a Muse cell analyzer (Merck Millipore, Burlington, MA, USA) using the Muse Oxidative Stress Kit (MCH100111) according to the manufacturer’s protocol.

[3] = test system: A549 cells (human lung carcinoma); test: MTT cytotoxicity assay, A549; assay type: cell-based; conditions: Homo sapiens, A549, 48 h, MTT assay, 48 h of treatment, mean ± SEM
Source text: as §1
as §2, with “A day after the seeding, triterpenoids or their derivatives dissolved in DMSO were added.” left out, “At 48 h after cell seeding, 10 μL of 5 mg/mL Thiazolyl Blue (Paneko, Russia) solution was added to each well and cells were kept for 3 h at 37 °C in a CO2 incubator.” left out

rat liver mitochondria [4] = test: Respiration of isolated mitochondria fueled by succinate; assay type: biochemical
Procedure: as §3, §4

[5] = test system: Human primary dermal fibroblasts (HPDF); test: MTT cytotoxicity assay, HPDF; assay type: cell-based
Source text: as §1
as §2, with “A day after the seeding, triterpenoids or their derivatives dissolved in DMSO were added.” left out, “At 48 h after cell seeding, 10 μL of 5 mg/mL Thiazolyl Blue (Paneko, Russia) solution was added to each well and cells were kept for 3 h at 37 °C in a CO2 incubator.” left out

rat liver mitochondria [6] = test: Mitochondrial H2O2 generation (Amplex Red); assay type: biochemical; conditions: 5 μM
Procedure: as §3
The fluorescent probe Amplex Red (λex = 560 nm; λem = 590 nm) and a plate reader Varioskan Lux were used to register mitochondrial H2O2 generation. In this case, 0.15 mg of mitochondrial protein was incubated in the buffer containing 210 mM mannitol, 70 mM sucrose, 10 μM EGTA, 10 µM Amplex Red, 1 µM rotenone, 10 µM EGTA, horseradish peroxidase (HRP 1 a.u./mL), 10 mM Hepes/KOH, and at a pH of 7.4. […] The kinetics of H2O2 generation was recorded for three minutes.

[7] = test system: MCF-7 cells (human breast adenocarcinoma); test: MTT cytotoxicity assay, MCF-7; assay type: cell-based
Source text: as §1, §2

rat liver mitochondria [8] = test: Mitochondrial membrane potential (TPP-sensitive electrode); assay type: biochemical; conditions: glutamate + malate or succinate + rotenone, Figure 5
Procedure: as §3
The mitochondrial membrane potential (Δψ) was measured using a penetrating tetraphenylphosphonium bromide (TPP) cation and a TPP-sensitive electrode (Nico-Analyte Ltd., Moscow, Russia) as described previously. The concentration of mitochondrial protein was 1 mg/mL.

[9] = test system: BT474 cells (human breast ductal carcinoma); test: MTT cytotoxicity assay, BT474; assay type: cell-based; conditions: BT-474, 48 h of treatment, mean ± SEM
Source text: as §1, §2

Structure (SMILES): CC1(C)CCC2(C(=O)OCCCC[n+]3ccc(C=Cc4c[nH]c5ccccc45)cc3)CCC3(C)C(=CCC4C5(C)CCC(O)C(C)(C)C5CCC43C)C2C1 (stereo not shown) [OA-F16]
- IC50 [1]: 930 ± 70 nM
- ADP/O (rat liver mitochondria [2]; 10 μM): 2.80 ± 0.13 rel. un.
- RC (state 3/state 4) (rat liver mitochondria [2]; 10 μM): 2.24 ± 0.11 rel. un.
- State 2 respiration (rat liver mitochondria [2]; 10 μM): 6.47 ± 0.27 nmol O2/min/mg Protein
- State 3UDNP respiration (rat liver mitochondria [2]; 10 μM): 31.34 ± 0.49 nmol O2/min/mg Protein
- State 3 respiration (rat liver mitochondria [2]; 10 μM): 23.82 ± 0.53 nmol O2/min/mg Protein
- State 4 respiration (rat liver mitochondria [2]; 10 μM): 10.65 ± 0.24 nmol O2/min/mg Protein
- ADP/O (rat liver mitochondria [2]; 20 μM): 0.64 ± 0.05 rel. un.
- RC (state 3/state 4) (rat liver mitochondria [2]; 20 μM): 1.03 ± 0.04 rel. un.
- State 2 respiration (rat liver mitochondria [2]; 20 μM): 15.38 ± 0.30 nmol O2/min/mg Protein
- State 3UDNP respiration (rat liver mitochondria [2]; 20 μM): 23.24 ± 0.61 *#^γ nmol O2/min/mg Protein
- State 3 respiration (rat liver mitochondria [2]; 20 μM): 17.02 ± 0.97 nmol O2/min/mg Protein
- State 4 respiration (rat liver mitochondria [2]; 20 μM): 16.55 ± 0.54 nmol O2/min/mg Protein
- Effect on level of ROS-positive cells (BT474 cells): significantly increase the level of ROS-positive cells
- IC50 [3]: 740 ± 90 nM
- ADP/O (rat liver mitochondria [4]; 10 μM): 1.41 ± 0.09 rel. un.
- RC (state 3/state 4) (rat liver mitochondria [4]; 10 μM): 2.83 ± 0.20 rel. un.
- State 2 respiration (rat liver mitochondria [4]; 10 μM): 14.39 ± 0.65 nmol O2/min/mg Protein
- State 3UDNP respiration (rat liver mitochondria [4]; 10 μM): 69.57 ± 1.73 nmol O2/min/mg Protein
- State 3 respiration (rat liver mitochondria [4]; 10 μM): 48.46 ± 0.82 nmol O2/min/mg Protein
- State 4 respiration (rat liver mitochondria [4]; 10 μM): 17.22 ± 0.93 nmol O2/min/mg Protein
- ADP/O (rat liver mitochondria [4]; 20 μM): 1.15 ± 0.05 rel. un.
- RC (state 3/state 4) (rat liver mitochondria [4]; 20 μM): 1.25 ± 0.10 rel. un.
- State 2 respiration (rat liver mitochondria [4]; 20 μM): 14.05 ± 0.18 nmol O2/min/mg Protein
- State 3UDNP respiration (rat liver mitochondria [4]; 20 μM): 56.46 ± 4.21 nmol O2/min/mg Protein
- State 3 respiration (rat liver mitochondria [4]; 20 μM): 41.57 ± 1.36 nmol O2/min/mg Protein
- State 4 respiration (rat liver mitochondria [4]; 20 μM): 33.23 ± 0.75 nmol O2/min/mg Protein
- IC50 ([5]; Homo sapiens, Fibroblast, MTT assay, 48 h of treatment, mean ± SEM): 2050 ± 580 nM
- Selectivity index (SI) ([5]; between tumor cells H1299, A549 and MCF-7 and fibroblasts): 1.3–2.8
- Effect on production of H2O2 by organelles (rat liver mitochondria [6]): antioxidant effect
- IC50 ([7]; Homo sapiens, MCF7, MTT assay, 48 h of treatment, mean ± SEM): 1520 ± 160 nM
- Chou–Talalay combination index (CI) ([7]; MCF7 cells, based on IC50 values for parent acid, F16 [23] and conjugate, CI < 1 synergism): 0.03
- Effect on membrane potential of organelles (rat liver mitochondria [8]): the most effective
- IC50 [9]: 4340 ± 280 nM
